From BindingDB's records for patent WO2022093856 (AMGEN INC., 2022)

Biological target: T1, GTPase KRas [1-169,G12C,C118A] (Homo sapiens, UniProt P01116, C118A/G12C)
T1 construct: 1-169
T1 sequence (P01116 1-169 G12C/C118A): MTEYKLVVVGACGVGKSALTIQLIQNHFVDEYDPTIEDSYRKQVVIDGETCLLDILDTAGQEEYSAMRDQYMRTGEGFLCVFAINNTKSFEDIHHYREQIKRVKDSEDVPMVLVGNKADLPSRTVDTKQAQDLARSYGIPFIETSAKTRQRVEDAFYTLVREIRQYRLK

C=CC(=O)N1CC2(CCN(c3nc4c(c(N[C@@H](CC(C)C)Cn5ccnn5)n3)CCC(C)(C)C4)C2)C1 [WO2022093856, Example 1-47]
IC50: 822 nM
